Experimental data: US20090203050A1 (The Regents of the University of California, priority 2005, published 2009)
Entries after “also recorded” stand apart in the source; their conditions may differ.

Legend:
[1] = system: Ramos wt cells; experiment: DNA fragmentation (PI) apoptosis assay, Ramos wt; format: cell-based, human
[2] = system: Daudi-RR1; experiment: DNA fragmentation (PI) apoptosis assay, Daudi-RR1; conditions: for resistance of clone compared with wt cells / resistance of clone compared with wt cells, value in parentheses / apoptosis, drug alone: 18 h; for apoptosis, drug after DHMEQ pre-treatment: DHMEQ 20 μg/ml 2 h, then highest drug concentration 18 h; for apoptosis, drug alone: highest drug concentration
Method: (§1) Percentage of apoptotic cells was determined by evaluation of propidium iodide (PI) stained preparations of cells using an EpicXL flow-cytometer. Cellular debris was excluded from analysis by raising the forward scatter threshold, and DNA content of the intact nuclei was recorded on a logarithmic scale (Nicoletti, I. et al., J. Immunol. Methods, 139:271-9 (1991)). Percent apoptosis is represented as percentage of hypodiploid cells accumulated at sub-G0 phase of cell cycle.
(§2) Cells were left either untreated or pre-treated with DHMEQ (36), bortezomib (Goy, A. et al., Clin. Lymphoma, 4:230-7 (2004)) and PD098059 (Alessi, D. et al., J. Biol. Chem., 270:27489-94 (1995)). Escalating concentrations of various drugs were then added and the percentage of apoptosis was measured.

[3] = system: RR clones; experiment: DNA fragmentation apoptosis assay, RR clones (pooled statements); format: cell-based, human; conditions: drugs e.g. Paclitaxel, Vincristine, VP-16, CDDP, Adriamycin
Method: Thus, we examined if such sensitizing agents can reverse the resistance in the RR clones.
as §1, §2

[4] = system: Daudi wt cells; experiment: DNA fragmentation (PI) apoptosis assay, Daudi wt; format: cell-based, human
[5] = system: Ramos-RR1; experiment: DNA fragmentation (PI) apoptosis assay, Ramos-RR1; conditions: for resistance of clone compared with wt cells / resistance of clone compared with wt cells, value in parentheses / apoptosis, drug alone: 18 h; for apoptosis, drug after DHMEQ pre-treatment: DHMEQ 20 μg/ml 2 h, then highest drug concentration 18 h; for apoptosis, drug alone: highest drug concentration
Method: as §1, §2

[6] = system: 2F7, Ramos and Daudi wild type and RR clones; experiment: TRAIL-mediated apoptosis in B-NHL cell lines and RR clones (DNA fragmentation); format: cell-based, human; conditions: for sensitization to TRAIL-induced apoptosis: inhibitor pretreatment 2 h, then TRAIL 18 h, rituximab-sensitive and -resistant cells
Text: Patients with B-NHL respond initially to conventional chemotherapy and/or to immunotherapy with rituximab (alone or in combination with chemotherapy). However, patients develop resistance to these modalities and novel approaches are needed. TRAIL is a cytotoxic molecule that exerts selective anti-tumor cytotoxic activity with minimal toxicity to normal tissues. Further, TRAIL or agonist monoclonal antibody (mAb) to TRAIL receptors, DR4 and DR5, are currently being tested clinically. The present study investigated the sensitivity of B-NHL cell lines to TRAIL-mediated apoptosis using the AIDS-related NHL (ARL) B-cell line, 2F7, and the B-NHL cell lines, Ramos and Daudi. Also, to recapitulate various aspects of acquired rituximab-resistance, we have generated rituximab-resistant (RR) clones from the parental wild type (wt) cells. […] We then examined means to reverse […] resistance. We and others have reported that inhibition of NFκB activity can sensitize TRAIL-resistant tumor cells to TRAIL-induced apoptosis. […] Both the rituximab-sensitive and rituximab-resistant tumor cells were sensitized by these inhibitors, though higher concentrations were required for sensitization of the RR clones. […] Based on the findings, patients with resistant B-NHL can be treated with combination of TRAIL/anti-DR4 or DR5 mAb and NFκB inhibitors. Alternatively, these patients can be treated with agents that up-regulate TRAIL expression on host effectors (e.g., T cells, NK cells) in combination with NFκB inhibitors.

[7] = system: p38MAPK/NF-κB/YY1/STAT3 signaling pathways, Bcl-2; experiment: Molecular analysis of signaling in 2F7RR1; format: cell-based; conditions: 2F7-RR1
Text: (§3) Accordingly, we examined whether inhibition of Bcl-2 in 2F7RR1 can reverse chemoresistance. Since Bcl-2 is under the transcriptional regulation of NFκB, we examined the effect of the NF-κB inhibitors Bortezomib and DHMEQ (Kikuchi, et al., Cancer Research, 63:107 (2003)).
(§4) The mechanism by which B-NHL patients resist treatment is not known. […] We examined the effect of various chemical inhibitors of this signaling pathway on chemosensitization.

[8] = system: 2F7RR1 clone; experiment: Chemotherapeutic drug-induced apoptosis in 2F7RR1; format: cell-based
Text: as §3, §4

[9] = system: Ramos and Daudi; conditions: ERK1/2 pathway inhibitors; cited from earlier work
[10] = wt Ramos, 2MAM-A3 15 μg/ml 7 h, paclitaxel 10 nM 18 h
[11] = Ramos-RR1, 2MAM-A3 35 μg/ml 7 h, paclitaxel 10 nM 18 h

CCCC[C@H]1C(=O)O[C@H](C)[C@H](NC(=O)c2cccc(NC=O)c2OC)C(=O)O[C@@H](C)[C@@H]1OC(=O)CC(C)C [2MAM-A3, 2-methoxyantimycin-A3]
apoptosis, paclitaxel after 2MAM-A3 pre-treatment [1, 10]: 26.7±2.2%
augmentation of paclitaxel cytotoxicity [1, 10]: 1.96 folds
augmentation of paclitaxel cytotoxicity ([2]; Daudi-RR1, 2MAM-A3 35 μg/ml 7 h, paclitaxel 10 nM 18 h): 3.2 folds
sensitization of RR clones to various chemotherapeutic drugs [3]: sensitized
augmentation of paclitaxel cytotoxicity ([4]; 2MAM-A3 15 μg/ml 7 h, paclitaxel 10 nM 18 h): 1.98 fold
apoptosis, paclitaxel after 2MAM-A3 pre-treatment [5, 11]: 39.7±2.4%
augmentation of paclitaxel cytotoxicity [5, 11]: 4.71 folds

COc1cccc2c1C(=O)c1c(O)c3c(c(O)c1C2=O)C[C@@](O)(C(=O)CO)C[C@@H]3O[C@H]1C[C@H](N)[C@H](O)[C@H](C)O1 [ADR]
resistance of clone compared with wt cells ([2]; Daudi-RR1): 1.94 folds
resistance of clone compared with wt cells, value in parentheses ([2]; Daudi-RR1): 149%
apoptosis, drug after DHMEQ pre-treatment ([2]; Daudi-RR1): 40.5±3.1%
apoptosis, drug alone ([2]; Daudi-RR1): 12.4±2.5%
resistance of clone compared with wt cells ([5]; Ramos-RR1): 2.3 folds
resistance of clone compared with wt cells, value in parentheses ([5]; Ramos-RR1): 158%
apoptosis, drug after DHMEQ pre-treatment ([5]; Ramos-RR1): 32.4±2.9%
apoptosis, drug alone ([5]; Ramos-RR1): 14.3±3.3%

CC(C)(C)c1ccc(S(=O)(=O)/C=C/C#N)cc1 [Bay 11-7085]
sensitization of RR clones to various chemotherapeutic drugs [3]: sensitized
sensitization to TRAIL-induced apoptosis [6]: significant augmentation of apoptosis and synergy was achieved

CC(C)C[C@H](NC(=O)[C@H](Cc1ccccc1)NC(=O)c1cnccn1)B(O)O [Bortezomib]
enhanced cytotoxicity of drugs by inhibitor [2]: 1.7-3.3 folds
sensitization of RR clones to various chemotherapeutic drugs [3]: sensitized
sensitization to TRAIL-induced apoptosis [6]: significant augmentation of apoptosis and synergy was achieved
effect on NF-kB, YY1 and Bcl-2 expression [7]: inhibition of NF-kB, YY1 and downregulated Bcl-2 expression
chemosensitization to drug-induced apoptosis (taxol, vincristine, ADR, CDDP, VP16) [8]: reversal of resistance; also recorded: significantly sensitized
enhanced cytotoxicity of drugs by inhibitor [5]: 1.8-5.1 folds

N.N.[Cl][Pt][Cl] [CDDP]
resistance of clone compared with wt cells ([2]; Daudi-RR1): 1.95 folds
resistance of clone compared with wt cells, value in parentheses ([2]; Daudi-RR1): 149%
apoptosis, drug after DHMEQ pre-treatment ([2]; Daudi-RR1): 36.6±0.9%
apoptosis, drug alone ([2]; Daudi-RR1): 25.7±3.1%
resistance of clone compared with wt cells ([5]; Ramos-RR1): 1.41 folds
resistance of clone compared with wt cells, value in parentheses ([5]; Ramos-RR1): 120%
apoptosis, drug after DHMEQ pre-treatment ([5]; Ramos-RR1): 61.2±2.1%
apoptosis, drug alone ([5]; Ramos-RR1): 19.0±0.7%

O=C1Nc2ccc(I)cc2/C1=C/c1cc(Br)c(O)c(Br)c1 [GW 5074]
sensitization to drug-induced apoptosis [9]: also sensitize the cells

C[S+]([O-])c1ccc(-c2nc(-c3ccncc3)c(-c3ccc(F)cc3)[nH]2)cc1 (centres unmarked) [SB 203580]
sensitization of RR clones to various chemotherapeutic drugs [3]: sensitized

N#CC(=C(/N)Sc1ccccc1N)/C(C#N)=C(/N)Sc1ccccc1N [UO126]
sensitization to drug-induced apoptosis [9]: also sensitize the cells

COc1cc([C@@H]2c3cc4c(cc3[C@@H](O[C@@H]3O[C@@H]5CO[C@@H](C)O[C@H]5[C@H](O)[C@H]3O)[C@H]3COC(=O)[C@H]23)OCO4)cc(OC)c1O [VP-16]
resistance of clone compared with wt cells ([2]; Daudi-RR1): 2.97 folds
resistance of clone compared with wt cells, value in parentheses ([2]; Daudi-RR1): 167%
apoptosis, drug after DHMEQ pre-treatment ([2]; Daudi-RR1): 32.0±2.2%
apoptosis, drug alone ([2]; Daudi-RR1): 11.8±0.9%
resistance of clone compared with wt cells ([5]; Ramos-RR1): 1.8 folds
resistance of clone compared with wt cells, value in parentheses ([5]; Ramos-RR1): 145%
apoptosis, drug after DHMEQ pre-treatment ([5]; Ramos-RR1): 53.0±2.6%
apoptosis, drug alone ([5]; Ramos-RR1): 10.3±1.1%

CC(=O)O[C@H]1C(=O)[C@@]2(C)[C@H]([C@H](OC(=O)c3ccccc3)[C@]3(O)C[C@H](OC(=O)[C@H](O)[C@@H](NC(=O)c4ccccc4)c4ccccc4)C(C)=C1C3(C)C)[C@]1(OC(C)=O)CO[C@@H]1C[C@@H]2O [paclitaxel]
apoptosis, paclitaxel alone ([1]; wt Ramos, paclitaxel 10 nM 18 h): 13.6±1.3%
resistance of clone compared with wt cells ([2]; Daudi-RR1): 1.63 folds
resistance of clone compared with wt cells, value in parentheses ([2]; Daudi-RR1): 139%
apoptosis, drug after DHMEQ pre-treatment ([2]; Daudi-RR1): 42.0±1.9%
apoptosis, drug alone ([2]; Daudi-RR1): 14.9±3.2%
resistance of clone compared with wt cells ([5]; Ramos-RR1): 1.54 folds
resistance of clone compared with wt cells, value in parentheses ([5]; Ramos-RR1): 136%
apoptosis, drug after DHMEQ pre-treatment ([5]; Ramos-RR1): 46.5±2.3%
apoptosis, drug alone ([5]; Ramos-RR1): 20.4±3.0%
apoptosis, paclitaxel alone ([5]; Ramos-RR1, paclitaxel 10 nM 18 h): 8.42±2.1%

CC[C@]1(O)C[C@H]2CN(CCc3c([nH]c4ccccc34)[C@@](C(=O)OC)(c3cc4c(cc3OC)N(C=O)[C@H]3[C@@](O)(C(=O)OC)[C@H](OC(C)=O)[C@]5(CC)C=CCN6CC[C@]43[C@@H]65)C2)C1 [vincristine]
resistance of clone compared with wt cells ([2]; Daudi-RR1): 1.66 folds
resistance of clone compared with wt cells, value in parentheses ([2]; Daudi-RR1): 140%
apoptosis, drug after DHMEQ pre-treatment ([2]; Daudi-RR1): 36.6±2.3%
apoptosis, drug alone ([2]; Daudi-RR1): 14.2±1.7%
resistance of clone compared with wt cells ([5]; Ramos-RR1): 1.42 folds
resistance of clone compared with wt cells, value in parentheses ([5]; Ramos-RR1): 130%
apoptosis, drug after DHMEQ pre-treatment ([5]; Ramos-RR1): 53.5±2.2%
apoptosis, drug alone ([5]; Ramos-RR1): 15.3±1.1%

cross-linked rituximab: 50 μg/ml anti-human immunoglobulin (hIg)+20 μg/ml rituximab
apoptosis ([1]; Ramos wt, 50 μg/ml anti-hIg + 20 μg/ml rituximab, 24 h): 29.2±2.4%
higher threshold to cross-linked rituximab-mediated apoptosis vs wt ([2]; Daudi-RR1): 2.56 folds
apoptosis ([4]; 50 μg/ml anti-hIg + 20 μg/ml rituximab, 24 h): 32.8±2.1%
higher threshold to cross-linked rituximab-mediated apoptosis vs wt ([5]; Ramos-RR1): 2.86 folds

B1: TRAIL: tumor necrosis factor (TNF)-related apoptosis-inducing ligand (protein, UniProt P50591 1-281, looked up)
Tumor necrosis factor ligand …: MAMMEVQGGPSLGQTCVLIVIFTVLLQSLCVAVTYVYFTNELKQMQDKYSKSGIACFLKEDDSYWDPNDEESMNSPCWQVKWQLRQLVRKMILRTSEETISTVQEKQQNISPLVRERGPQRVAAHITGTRGRSNTLSSPNSKNEKALGRKINSWESSRSGHSFLSNLHLRNGELVIHEKGFYYIYSQTYFRFQEEIKENTKNDKQMVQYIYKYTSYPDPILLMKSARNSCWSKDAEYGLYSIYQGGIFELKENDRIFVSVTNEHLIDMDHEASFFGAFLVG
sensitivity to TRAIL-mediated apoptosis ([6]; wild type and RR1 cells, TRAIL 1-250 ng/ml, 18 h): resistant
